Experimental data published in patent US9085599B2, “2′allene-substituted nucleoside derivatives” (priority 2011, dated 2015).
Where two headings read alike, the source gives them in different places.

Legend:
[1] = test system: HCV replicon RNA, genotype 1b (strain Con1); experiment: HCV replicon assay qRT-PCR, genotype 1b (SGR 11-7 replicon cell line); type: cell-based; settings: Hepatitis C virus, read-out: 1b EC50
Description: (§1) HCV replicon cell lines (kindly provided by R. Bartenschlager) isolated from colonies as described by Lohman et al. (Lohman et al. (1999) Science 285: 110-113, expressly incorporated by reference in its entirety) and used for all experiments. One of the HCV replicon cell lines (strain Con1, genotype 1b) has the nucleic acid sequence set forth in EMBL Accession No.: AJ242651, the coding sequence of which is from nucleotides 1801 to 8406. Another replicon cell line (strain H77, genotype 1a) was constructed as described by Yi et. al. (Yi et. al. (2004) Journal of Virology 78(15):7904-15). […]
(§2) EC50 values of single agent compounds were determined by HCV RNA detection using quantitative RT-PCR, according to the manufacturer's instructions, with a TAQMAN® One-Step RT-PCR Master Mix Reagents Kit (Cat#AB 4309169, Applied Biosystems) on an ABI Model 7500 thermocycler. EC50 values of combinations are similarly determined by HCV RNA detection using quantitative RT-PCR. The TAQMAN primers to use for detecting and quantifying HCV RNA obtained from Integrated DNA Technologies. HCV RNA is normalized to GAPDH RNA levels in drug-treated cells, which is detected and quantified using the Human GAPDH Endogenous Control Mix (Applied Biosystems, AB 4310884E). […] Chemical agent cytotoxicity is evaluated using an MTS assay according to the manufacturer's directions (Promega). […]

[2] = test system: HCV replicon RNA, genotype 1a (strain H77); experiment: HCV replicon assay qRT-PCR, genotype 1a (Huh-1a7 replicon cell line); type: cell-based; settings: Hepatitis C virus, read-out: 1a EC50
Description: as §1, §2

Compound	EC50 ([1]; Genotype-1b replicon, HCV RNA by qRT-PCR normalized to GAPDH RNA) [µM]	EC50 ([2]; Genotype-1a replicon, HCV RNA by qRT-PCR normalized to GAPDH RNA) [µM]	EC50 [1] [µM]	EC50 [2] [µM]
C=C=C[C@@]1(O)C(O)[C@@H](CO)O[C@H]1n1ccc(=O)[nH]c1=O (stereo partly shown) [Example 1]	> 10	> 10	–	–
C=C=C[C@@]1(O)C(O)[C@@H](COP(=O)(N[C@@H](C)C(=O)OC)Oc2cccc3ccccc23)O[C@H]1n1ccc(=O)[nH]c1=O (stereo partly shown) [Example 2]	–	–	1 to 10	1 to 10
